Source: ChEMBL document CHEMBL5113380, “Functionalized quinoxalinones as privileged structures with broad-ranging pharmacological activities” (Eur J Med Chem, 2022)
In brackets after ≈: the same amount, converted by molar mass.

Columns and labels:
[1] = test system: Mycobacterium tuberculosis; experiment: Antimycobacterial activity against Mycobacterium tuberculosis H37Rv; type: functional
Enterococcus faecalis = experiment: Antibacterial activity against Enterococcus faecalis; type: functional
Candida albicans = experiment: Antifungal activity against Candida albicans; type: functional
Aspergillus fumigatus = experiment: Antifungal activity against Aspergillus fumigatus; type: functional
Escherichia coli [2] = experiment: Antibacterial activity against Escherichia coli; type: functional
Staphylococcus aureus [3] = experiment: Antibacterial activity against Staphylococcus aureus; type: functional
Klebsiella pneumoniae = experiment: Antibacterial activity against Klebsiella pneumoniae; type: functional
Streptococcus pneumoniae = experiment: Antibacterial activity against Streptococcus pneumoniae; type: functional
[4] = Inhibition of Escherichia coli topoisomerase 4
Pseudomonas aeruginosa = experiment: Antibacterial activity against Pseudomonas aeruginosa; type: functional
Escherichia coli [5] = experiment: Antibacterial activity against Escherichia coli W3110; type: functional
MRC5 = experiment: Antiproliferative activity against human MRC5 cells; type: functional, cell-based
HeLa = experiment: Antiproliferative activity against human HeLa cells; type: functional, cell-based
LS174T = experiment: Antiproliferative activity against human LS174T cells; type: functional, cell-based
A549 = experiment: Antiproliferative activity against human A549 cells; type: functional, cell-based
[6] = Antioxidant activity assessed as DPPH radical scavenging activity; type: functional
[7] = Antioxidant activity assessed as H2O2 radical scavenging activity; type: functional
[8] = Antioxidant activity assessed as NO radical scavenging activity; type: functional
Candida [9] = experiment: Antifungal activity against Candida species isolate 3; type: functional
Candida [10] = experiment: Antifungal activity against Candida species isolate 1; type: functional
Candida tropicalis = experiment: Antifungal activity against Candida tropicalis; type: functional
Pichia kudriavzevii = experiment: Antifungal activity against Candida krusei; type: functional
Candida parapsilosis = experiment: Antifungal activity against Candida parapsilosis; type: functional; details: Lodderomyces parapsilosis
Candida [11] = experiment: Antifungal activity against Candida species isolate 2; type: functional
Nakaseomyces glabratus = experiment: Antifungal activity against Candida glabrata; type: functional
Escherichia coli [12] = experiment: Antibacterial activity against Escherichia coli assessed as diameter zone of inhibition; type: functional
Bacillus subtilis = experiment: Antibacterial activity against Bacillus subtilis assessed as diameter zone of inhibition; type: functional
Staphylococcus aureus [13] = experiment: Antibacterial activity against Staphylococcus aureus assessed as diameter zone of inhibition; type: functional
Pyricularia grisea [14] = experiment: Antifungal activity against Magnaporthe grisea GD08-T19 assessed as diameter zone of inhibition; type: functional
Pyricularia grisea [15] = experiment: Antifungal activity against Magnaporthe grisea GD08-T19 at 50 ug/ml; type: functional; details: dose 50 µg/ml
[16] = Inhibition of lipid peroxidation at 100 uM by measuring MDA concentration; type: functional
[17] = Antioxidant activity assessed as DPPH radical scavenging activity at 100 uM; type: functional
[18] = Inhibition of ALR2 (unknown origin); design: species or system Homo sapiens
[19] = Inhibition of ALR1 (unknown origin) relative to control; design: concentration or dose not given beside the values; details: Homo sapiens; concentration not given here
[20] = molecular target: T1, Glutamate receptor ionotropic AMPA (Homo sapiens, UniProt P42261+P42262+P42263+P48058); experiment: Displacement of [3H]AMPA from AMPA receptor (unknown origin); type: protein-complex assay
[21] = Displacement of [3H]glycine from AMPA receptor (unknown origin); type: protein-complex assay, Homo sapiens
[22] = molecular target: T1, Glutamate receptor ionotropic AMPA; experiment: Displacement of [3H]kainic acid from AMPA receptor (unknown origin); type: protein-complex assay
[23] = molecular target: Glutamate [NMDA] receptor; experiment: Displacement of [3H]MK-801 from NMDA receptor (unknown origin); type: protein-complex assay, Homo sapiens
[24] = Inhibition of cGMP-dependent 3',5'-cyclic phosphodiesterase (unknown origin); design: species or system Homo sapiens
Coronary artery = experiment: Vasorelaxant activity in dog coronary arteries; type: functional, tissue-based; details: Canis lupus familiaris
[25] = molecular target: 3',5'-cyclic phosphodiesterase; experiment: Inhibition of cAMP-specific 3',5'-cyclic phosphodiesterase (unknown origin); type: protein assay, Homo sapiens
Papillary muscle = experiment: Positive inotropic activity in ferret papillary muscle assessed as contractile force measured as CFC20; type: functional, Mustela putorius furo
Mesenteric vein = experiment: Vasorelaxant activity in dog mesenteric veins; type: functional, tissue-based; details: Canis lupus familiaris
Staphylococcus aureus [26] = experiment: Antibacterial activity against methicillin-resistant Staphylococcus aureus; type: functional
Alpha amylase = molecular target: T2, Alpha amylase (Homo sapiens, UniProt P0DUB6); experiment: Inhibition of alpha-amylase (unknown origin)
T2 sequence (P0DUB6 whole entry): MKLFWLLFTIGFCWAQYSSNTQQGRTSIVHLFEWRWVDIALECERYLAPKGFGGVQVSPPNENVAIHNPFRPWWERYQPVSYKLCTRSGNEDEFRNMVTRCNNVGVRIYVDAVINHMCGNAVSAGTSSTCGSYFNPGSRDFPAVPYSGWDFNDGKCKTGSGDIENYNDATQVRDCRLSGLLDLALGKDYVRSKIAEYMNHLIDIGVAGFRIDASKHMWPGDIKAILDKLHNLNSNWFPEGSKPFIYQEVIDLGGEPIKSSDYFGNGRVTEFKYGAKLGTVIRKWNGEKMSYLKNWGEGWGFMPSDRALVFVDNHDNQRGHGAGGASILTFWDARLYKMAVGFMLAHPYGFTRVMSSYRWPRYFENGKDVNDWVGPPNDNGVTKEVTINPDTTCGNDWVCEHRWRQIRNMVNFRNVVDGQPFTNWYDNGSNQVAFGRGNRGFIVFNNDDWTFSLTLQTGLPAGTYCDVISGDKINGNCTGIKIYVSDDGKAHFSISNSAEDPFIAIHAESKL

[27] = molecular target: Vascular endothelial growth factor receptor 2 (Homo sapiens, UniProt P35968)
HepG2 = experiment: Antiproliferative activity against human HepG2 cells; type: functional, cell-based
MCF7 = experiment: Antiproliferative activity against human MCF7 cells; type: functional, cell-based

Sequence of Vascular endothelial growth factor receptor 2 (P35968 whole entry): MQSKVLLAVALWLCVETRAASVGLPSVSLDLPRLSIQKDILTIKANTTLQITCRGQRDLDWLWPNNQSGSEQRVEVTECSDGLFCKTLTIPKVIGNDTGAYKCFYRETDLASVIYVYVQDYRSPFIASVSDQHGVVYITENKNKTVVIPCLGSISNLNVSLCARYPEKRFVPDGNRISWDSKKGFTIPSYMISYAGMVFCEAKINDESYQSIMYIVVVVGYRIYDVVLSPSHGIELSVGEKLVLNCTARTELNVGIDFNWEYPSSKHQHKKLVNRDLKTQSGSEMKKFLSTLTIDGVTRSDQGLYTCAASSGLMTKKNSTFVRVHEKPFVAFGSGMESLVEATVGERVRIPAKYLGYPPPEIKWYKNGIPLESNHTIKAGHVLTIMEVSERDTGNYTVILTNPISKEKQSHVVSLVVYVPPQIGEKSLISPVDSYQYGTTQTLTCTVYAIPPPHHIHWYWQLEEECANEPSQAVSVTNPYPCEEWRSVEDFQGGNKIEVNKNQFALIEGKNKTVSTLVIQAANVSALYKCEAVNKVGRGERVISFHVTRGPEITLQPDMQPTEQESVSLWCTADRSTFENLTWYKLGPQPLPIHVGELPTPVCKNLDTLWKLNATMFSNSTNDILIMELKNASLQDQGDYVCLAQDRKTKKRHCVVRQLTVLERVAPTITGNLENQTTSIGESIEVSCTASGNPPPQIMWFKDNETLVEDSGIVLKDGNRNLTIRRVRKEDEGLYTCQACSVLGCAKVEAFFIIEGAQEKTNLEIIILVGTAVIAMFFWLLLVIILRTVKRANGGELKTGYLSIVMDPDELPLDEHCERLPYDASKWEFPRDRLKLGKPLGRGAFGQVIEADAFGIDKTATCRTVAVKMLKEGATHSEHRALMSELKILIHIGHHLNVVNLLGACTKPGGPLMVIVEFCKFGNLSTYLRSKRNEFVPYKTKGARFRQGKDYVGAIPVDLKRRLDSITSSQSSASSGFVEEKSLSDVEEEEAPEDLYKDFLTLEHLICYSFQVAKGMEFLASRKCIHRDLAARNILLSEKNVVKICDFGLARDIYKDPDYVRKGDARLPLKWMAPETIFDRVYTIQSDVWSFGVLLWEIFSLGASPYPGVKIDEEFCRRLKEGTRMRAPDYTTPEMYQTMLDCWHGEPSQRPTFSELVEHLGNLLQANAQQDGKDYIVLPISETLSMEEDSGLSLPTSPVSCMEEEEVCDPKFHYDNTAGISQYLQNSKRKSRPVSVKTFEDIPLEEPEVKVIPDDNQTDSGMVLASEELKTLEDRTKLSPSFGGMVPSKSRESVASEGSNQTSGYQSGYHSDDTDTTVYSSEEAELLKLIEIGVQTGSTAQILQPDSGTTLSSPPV

SMILES: COc1ccc(/C(C)=N/NC(=O)Cn2c(=O)c(C)nc3ccccc32)cc1
- MIC [1]: 25 µg/mL (≈ 68.6 µM)
- MIC (Enterococcus faecalis): 131 µg/mL (≈ 360 µM)
- MIC (Candida albicans): 250 µg/mL (≈ 686 µM)
- MIC (Aspergillus fumigatus): 8.06 µg/mL (≈ 22.1 µM)
- MIC (Escherichia coli [2]): 125 µg/mL (≈ 343 µM)
- MIC (Staphylococcus aureus [3]): 62.5 µg/mL (≈ 172 µM)
- MIC (Klebsiella pneumoniae): 125 µg/mL (≈ 343 µM)

SMILES: COc1ccc2ncc(=O)n(CCN3CCC(NCc4cc5c(cn4)OCCO5)CC3)c2c1
- MIC (Streptococcus pneumoniae): 0.06 µg/mL (≈ 0.133 µM)
- MIC (Staphylococcus aureus [3]): 0.02 µg/mL (≈ 0.0443 µM)
- IC50 [4]: 0.005 µM
- MIC (Pseudomonas aeruginosa): 4 µg/mL (≈ 8.86 µM)
- MIC (Escherichia coli [5]): 0.5 µg/mL (≈ 1.11 µM)

SMILES: COc1ccc(C(=O)/C=C2/Nc3ccccc3NC2=O)cc1
- IC50 (MRC5): 190 µM
- IC50 (HeLa): 15.2 µM
- IC50 (LS174T): 24.3 µM
- IC50 (A549): 66.9 µM

SMILES: Cc1nc2ccccc2n(CC(=O)N/N=C/c2ccc(OCCn3cc(CN4CCCC4)nn3)cc2)c1=O
- IC50 [6]: 27.17 µg/mL
- IC50 [7]: 56.81 µg/mL (≈ 110 µM)
- IC50 [8]: 53.19 µg/mL (≈ 103 µM)

SMILES: O=c1[nH]c2ccc(C(F)(F)F)cc2nc1CBr
- MIC (Candida [9]): 62.5 µg/mL (≈ 204 µM)
- MIC (Candida [10]): 15.6 µg/mL (≈ 50.8 µM)
- MIC (Candida albicans): 31.2 µg/mL (≈ 102 µM)
- MIC (Candida tropicalis): > 500 µg/mL
- MIC (Staphylococcus aureus [3]): 31.2 µg/mL (≈ 102 µM)
- MIC (Pichia kudriavzevii): 62.5 µg/mL (≈ 204 µM)
- MIC (Candida parapsilosis): 250 µg/mL (≈ 814 µM)
- MIC (Candida [11]): 62.5 µg/mL (≈ 204 µM)
- MIC (Nakaseomyces glabratus): 62.5 µg/mL (≈ 204 µM)

SMILES: O=C(CC1=NC2CCCCC2NC1=O)NNC(=S)Nc1ccccc1 (configuration not stated)
- diameter of the inhibition zone (DIZ) (Escherichia coli [12]): 12 mm
- diameter of the inhibition zone (DIZ) (Bacillus subtilis): 18 mm
- diameter of the inhibition zone (DIZ) (Staphylococcus aureus [13]): 16 mm

SMILES: C=C(C)CCC(=O)/C=C1/Nc2ccccc2NC1=O
- IC50 (MRC5): 174 µM
- IC50 (HeLa): 25.1 µM
- IC50 (LS174T): 33.5 µM
- IC50 (A549): 86.2 µM

SMILES: Cn1c(=O)c(C(CCCNC(=O)c2ccc(OC(F)(F)F)cc2)CC(F)(F)F)nc2ccccc21 (configuration not stated)
- diameter of the inhibition zone (DIZ) (Pyricularia grisea [14]): 32 mm
- Activity (Pyricularia grisea [15]): 49%

SMILES: O=C(O)Cn1c(=O)c(Oc2ccc(O)cc2)nc2cc(F)ccc21
- inhibition [16]: 14.3%
- Activity [17]: 23.7%
- IC50 [18]: 0.0196 µM
- inhibition [19]: 11.8%

SMILES: O=C(O)c1cc2c3cc(Cl)c(Cl)cc3[nH]c(=O)n2n1
- Ki [20]: 2.4 µM
- Ki [21]: 0.16 µM
- IC50 [22]: 41 µM
- IC50 [23]: 0.89 µM

SMILES: CCc1nccn1-c1ncnc2c1nc(O)c1cnc(CC)n12
- IC50 [24]: 14 µM
- EC50 (Coronary artery): 59 µM
- IC50 [25]: > 100 µM
- Activity (Papillary muscle): >100 µM
- EC50 (Mesenteric vein): 23 µM

SMILES: O=C1CN(C(=O)CNc2ccccc2O)c2ccccc2N1
- diameter of the inhibition zone (DIZ) (Escherichia coli [12]): 11 mm

SMILES: CCc1nc(C)c2c(O)nc3ccccc3n12
- IC50 [24]: 0.4 µM
- EC50 (Coronary artery): 1.7 µM
- IC50 [25]: 2 µM
- Activity (Papillary muscle): 0.2 µM
- EC50 (Mesenteric vein): 0.8 µM

SMILES: O=C(O)c1nc2c(=O)[nH]c3cc(Cl)c(Cl)cc3n2n1
- Ki [20]: 1.3 µM
- Ki [21]: 0.074 µM
- EC50 [23]: 0.3 µM

SMILES: COc1ccc(C2SCC(=O)N2c2ccc3nc(Cc4ccc(O)cc4)c(=O)[nH]c3c2)cc1 (configuration not stated)
- IC50 ([6]; read-out: IC50): 19.6 µM
- MBC (Candida albicans): 85 µM (≈ 39.1 µg/mL)
- MBC (Staphylococcus aureus [26]): 63.8 µM (≈ 29.3 µg/mL)
- MBC (Escherichia coli [2]): 21.2 µM (≈ 9.74 µg/mL)
- MBC (Staphylococcus aureus [3]): 15.9 µM (≈ 7.31 µg/mL)
- MBC (Pseudomonas aeruginosa): 680 µM (≈ 313 µg/mL)
- IC50 (Alpha amylase): 301.59 µM

SMILES: CCc1ncc2c(O)nc3cccnc3n12
- IC50 [24]: 7 µM
- EC50 (Coronary artery): 0.3 µM
- IC50 [25]: 1 µM
- Activity (Papillary muscle): 0.1 µM
- EC50 (Mesenteric vein): 0.5 µM

SMILES: Cc1ccc(O)c(NC(=O)c2ccc(NC(=O)Cn3c(=O)c4nncn4c4ccccc43)cc2)c1
- IC50 [27]: 0.0039 µM
- IC50 (HepG2): 7.8 µM
- IC50 (MCF7): 8.1 µM

SMILES: COc1ccc(C(=O)Nc2cccc(C(=O)/C=C3/Nc4ccccc4NC3=O)c2)cc1
- IC50 (MRC5): 182 µM
- IC50 (HeLa): 10.5 µM
- IC50 (LS174T): 16.8 µM
- IC50 (A549): 40.4 µM

SMILES: O=c1[nH]c2cc(F)c(F)cc2nc1CBr
- MIC (Candida [9]): 500 µg/mL (≈ 1820 µM)
- MIC (Candida [10]): 62.5 µg/mL (≈ 227 µM)
- MIC (Candida albicans): 31.2 µg/mL (≈ 113 µM)
- MIC (Candida tropicalis): 500 µg/mL (≈ 1820 µM)
- MIC (Staphylococcus aureus [3]): 125 µg/mL (≈ 454 µM)
- MIC (Pichia kudriavzevii): 125 µg/mL (≈ 454 µM)
- MIC (Candida parapsilosis): 62.5 µg/mL (≈ 227 µM)
- MIC (Candida [11]): 125 µg/mL (≈ 454 µM)
- MIC (Nakaseomyces glabratus): 125 µg/mL (≈ 454 µM)
